{"source": "patent US4218477A", "about": "“Primary aminoacylanilides, methods of making the same and use as antiarrhythmic drugs” (priority 1976, dated 1980)", "key": {"[1]": {"test_system": "chloroform induced fibrillation", "assay": "Protection against chloroform induced fibrillation in mice, subcutaneous, potency relative to lidocaine (Table IV)", "assay_type": "in vivo", "settings": "s.c., 20 min, statistical mean (confidence limits)", "procedure": "(§1) The experiments on mice were performed according to a modification of the method described by J. W. Lawson, \"Antiarrhythmic activity of some isoquinoline derivatives determined by a rapid screening procedure in the mouse\", J. Pharm. Exp. Therap. Vol. 160, pp. 22-31 (1968). This method is based upon the observation that when an unanesthetized, untreated mouse is exposed to chloroform vapor its respiration soon ceases and at that time both electrocardiographic and visual inspection reveal that the cardiac ventricles are fibrillating. If the mouse is treated appropriately with known antiarrhythmic agents prior to exposure to chloroform, the respiratory failure is not accompanied by ventricular fibrillation.\nThe procedure used was a modification of the method previously described. The modification involved using a standard time of 20 minutes for each test run and four different doses of the same drug. Route of administration was subcutaneous."}, "[2]": {"assay": "Acute oral toxicity in mice (24 Hr. mortality)", "settings": "mouse, in vivo, po"}, "ventricular fibrillation": {"test_system": "ventricular fibrillation", "assay": "Protection against chloroform induced ventricular fibrillation in mice, oral (Table I)", "assay_type": "in vivo, female Swiss albino mice (HAM/ICR)", "procedure": "as §1"}, "mice [3]": {"test_system": "mice", "assay": "Ataxia just before CHCl3 challenge in mice, oral (Table I)", "assay_type": "in vivo, female Swiss albino mice (HAM/ICR)", "procedure": "as §1"}, "mice [4]": {"test_system": "mice", "settings": "mouse, in vivo, po, 1440 min"}, "cardiac arrhythmias": {"test_system": "cardiac arrhythmias", "settings": "in vivo; cited from earlier work"}, "mice [5]": {"test_system": "mice", "assay": "Acute oral toxicity in mice (24 Hr. mortality)", "settings": "oral, mice, 24 hr; dose to kill one of a thousand"}, "[6]": {"settings": "dose LD0.1, drug given 20 min before CHCl3 challenge"}}, "note": "Like-named read-outs stand apart in the source and are kept apart here."}
{"smiles": "Cc1cccc(C)c1NC(=O)[C@@H](C)N", "note": "[2-amino-2',6'-propionoxylidide]", "values": [{"measurement": "Relative Potency (ED50 test compound/ED50 lidocaine)", "setting": "[1]", "result": "0.45 (0.26 - 0.78)"}]}
{"smiles": "CCc1cccc(CC)c1NC(=O)CN", "note": "[2-amino-2', 6'-diethylacetanilide, 2-amino-2',6'-diethylacetanilide]", "values": [{"measurement": "Relative Potency (ED50 test compound/ED50 lidocaine)", "setting": "[1]", "result": "0.22 (0.13 - 0.36)"}]}
{"smiles": "CCc1cccc(CC)c1NC(=O)C(C)N", "note": "(stereo not shown) [2-amino-2', 6'-diethylpropionanilide, 2-amino-2',6'-diethylpropionanilide]", "values": [{"measurement": "Relative Potency (ED50 test compound/ED50 lidocaine)", "setting": "[1]", "result": "0.48 (0.27 -0.73)"}]}
{"smiles": "CCc1cccc(C)c1NC(=O)CN", "note": "[2-amino-2'-ethyl-6'-methyl acetanilide, 2-amino-2'-ethyl-6'-methylacetanilide]", "values": [{"measurement": "Relative Potency (ED50 test compound/ED50 lidocaine)", "setting": "[1]", "result": "0.27 (0.14 - 0.40)"}]}
{"smiles": "Cc1cccc(C)c1NC(=O)CCN", "note": "[3-amino-2', 6'-propionoxylidide, 3-amino-2',6'-propionoxylidide]", "values": [{"measurement": "Relative Potency (ED50 test compound/ED50 lidocaine)", "setting": "[1]", "result": "0.4 (0.2 - 0.8)"}]}
{"smiles": "CCc1cccc(C)c1NC(=O)CCN", "note": "[3-amino-2'-ethyl-6'-methylpropionanilide]", "values": [{"measurement": "Relative Potency (ED50 test compound/ED50 lidocaine)", "setting": "[1]", "result": "0.29 (0.09 - 0.81)"}]}
{"smiles": "Cc1cccc(C)c1NC(=O)[C@H](C)N", "note": "[(+)-2-amino-2',6'-propionoxylidide]", "values": [{"measurement": "Relative Potency (ED50 test compound/ED50 lidocaine)", "setting": "[1]", "result": "0.11 (0.06 - 0.21)"}]}
{"smiles": "CCN(CC)CCNC(=O)c1ccc(N)cc1", "note": "[Procainamide]", "values": [{"measurement": "LD50 at 24 h", "setting": "[2]", "result": 643, "unit": "mg/kg"}, {"measurement": "Proportion of mice protected against fibrillation at LD0.1", "setting": "ventricular fibrillation; dose LD0.1, drug given 5 min before CHCl3 challenge", "result": "0/10"}, {"measurement": "Proportion of mice protected against fibrillation at LD0.1", "setting": "ventricular fibrillation; dose LD0.1, drug given 10 min before CHCl3 challenge", "result": "1/10"}, {"measurement": "Proportion of mice protected against fibrillation at LD0.1", "setting": "ventricular fibrillation; [6]", "result": "0/10"}, {"measurement": "Proportion of mice having ataxia just before CHCl3 challenge", "setting": "mice [3]; dose LD0.1, 5 min", "result": "0/10"}, {"measurement": "Proportion of mice having ataxia just before CHCl3 challenge", "setting": "mice [3]; dose LD0.1, 10 min", "result": "0/10"}, {"measurement": "Proportion of mice having ataxia just before CHCl3 challenge", "setting": "mice [3]; dose LD0.1, 20 min", "result": "0/10"}, {"measurement": "24 Hr. Mortality LD0.1", "setting": "mice [4]", "result": 248, "unit": "mg/kg"}, {"measurement": "side effects", "setting": "cardiac arrhythmias", "result": "exhibit undesirable side effects"}]}
{"smiles": "C=C[C@H]1C[N@@]2CC[C@H]1C[C@@H]2[C@@H](O)c1ccnc2ccc(OC)cc12", "note": "[Quinidine]", "values": [{"measurement": "LD50 at 24 h", "setting": "[2]", "result": 382, "unit": "mg/kg"}, {"measurement": "24 Hr. Mortality LD0.1", "setting": "mice [5]", "result": 348, "unit": "mg/kg"}, {"measurement": "Proportion of mice protected against fibrillation at LD0.1", "setting": "ventricular fibrillation; [6]", "result": "10/10"}, {"measurement": "Proportion of mice protected against fibrillation at LD0.1", "setting": "ventricular fibrillation; dose LD0.1, drug given 40 min before CHCl3 challenge", "result": "9/9"}, {"measurement": "Proportion of mice protected against fibrillation at LD0.1", "setting": "ventricular fibrillation; dose LD0.1, drug given 80 min before CHCl3 challenge", "result": "9/9"}, {"measurement": "Proportion of mice having ataxia just before CHCl3 challenge", "setting": "mice [3]; dose LD0.1, 20 min", "result": "0/10"}, {"measurement": "Proportion of mice having ataxia just before CHCl3 challenge", "setting": "mice [3]; dose LD0.1, 40 min", "result": "2/10"}, {"measurement": "death", "setting": "mice [3]; dose LD0.1, 40 min group", "result": 1, "unit": "death"}, {"measurement": "death", "setting": "mice [3]; dose LD0.1, 80 min group", "result": 1, "unit": "death"}, {"measurement": "side effects", "setting": "cardiac arrhythmias", "result": "exhibit undesirable side effects"}]}
{"smiles": "O=C1NC(=O)C(c2ccccc2)(c2ccccc2)N1", "note": "[diphenylhydantoin]", "values": [{"measurement": "side effects", "setting": "cardiac arrhythmias", "result": "exhibit undesirable side effects"}]}
{"smiles": "CC(C)NCC(O)COc1cccc2ccccc12", "note": "(stereo not shown) [propranolol]", "values": [{"measurement": "side effects", "setting": "cardiac arrhythmias", "result": "exhibit undesirable side effects"}]}
